Active and inactive are the calls of the source. The rule behind the calls is not given here.
How the values were obtained:
[1] = system: Artemia; test: Toxicity against brine shrimp at 500 ug/mL; format: organism-based; settings: in vivo
[2] = system: Candida albicans; test: Antifungal activity against Candida albicans at 500 ug/disk; format: functional, organism-based
[3] = system: Aspergillus flavus; test: Antifungal activity against Aspergillus flavus at 500 ug/disk; format: functional, organism-based
[4] = system: Sclerotinia sclerotiorum; test: Antifungal activity against Sclerotinia sclerotiorum at 0.00011 uM/disk after 96 hrs; format: functional; settings: read-out: IZ
[5] = system: Fusarium oxysporum; test: Antifungal activity against Fusarium oxysporum at 500 ug/disk; format: functional, organism-based
[6] = system: Aspergillus niger; test: Antifungal activity against Aspergillus niger at 500 ug/disk; format: functional, organism-based
[7] = system: Geotrichum candidum; test: Antifungal activity against Geotrichum candidum at 500 ug/disk; format: functional, organism-based
[8] = system: Helminthosporium; test: Antifungal activity against Helminthosporium sativum at 500 ug/disk; format: functional, organism-based
[9] = system: Sclerotinia sclerotiorum; test: Antifungal activity against Sclerotinia sclerotiorum at 0.00034 uM/disk after 96 hrs; format: functional; settings: read-out: IZ

SMILES | Activity [1] | Activity [2] | Activity [3] | zone of inhibition at 0.00011 µM [4] | Activity [5] | Activity [6] | Activity [7] | Activity [8] | zone of inhibition at 0.00034 µM [9]
CC1=C[C@H]2C[C@H](C)[C@@H](O)[C@H](C)[C@H]2[C@H](/C=C(C)/C=C(C)/C=C/C(=O)O)/C1=C\C(=O)CO | Non-toxic | inactive | inactive | 17 mm | inactive | inactive | inactive | inactive | –
CC1=C[C@H]2C[C@H](C)[C@@H](O)[C@H](C)[C@H]2[C@H](/C=C(C)/C=C(C)\C=C\C(=O)O)/C1=C\C(=O)CO | Non-toxic | inactive | inactive | – | inactive | inactive | inactive | inactive | 16 mm

Source: ChEMBL document CHEMBL1144091, “Isolation of two highly methylated polyketide derivatives from a yew-associated penicillium species” (J Nat Prod, 1999)
